Measured values from article PMC10045534, “Preparation and Evaluation of 6-Gingerol Derivatives as Novel Antioxidants and Antiplatelet Agents” (Antioxidants, 2023).

System: washed human platelets
Test: Arachidonic acid-induced platelet aggregation (turbidimetric aggregometer)
Format: cell-based
Settings: AA-induced platelet aggregation
Method: (§1) All bioactivity data processing, including the calculation of inhibition percentage, mean and corresponding standard error of the mean (SEM), and IC50 values, was performed by GraphPad Prism 8.0 (La Jolla, CA, USA). IC50 values were calculated from the sigmoidal dose–response curves obtained by the log(inhibitor) vs. response and variable slope (DPPH assay) or the log(inhibitor) vs. normalised response and variable slope nonlinear regression model. On the results obtained, no statistical evaluation was performed; instead, differences greater than two-fold were considered relevant. Plotting of the antiplatelet and COX-1 inhibitory IC50 values and the linear regression of the data was performed by Microsoft Excel.
Human platelet suspension (3 × 10^8/mL in Tyrode’s buffer) was prepared as previously described. The protocol for this study was approved by the institutional review board of Kaohsiung Medical University Hospital (Kaohsiung City, Taiwan). Platelets pre-treated with DMSO (vehicle control) or test compounds were stimulated with arachidonic acid (AA), and platelet aggregation was measured using turbidimetric aggregometer (Chrono-Log Co., Havertown, PA, USA) at 37 °C under stirring conditions (1200 rpm).
For `CCCCCCCNC(=O)CCc1ccc(O)c(OC)c1` [Compound 22], the “antiplatelet activity (in words)” value was “only moderate activity”.

Same assay, conditions: AA-induced platelet aggregation, ratio of IC50 values
For `CCCCC[C@H](O)CC(=O)CCc1ccc(O)c(OC)c1` [Compound 1, (S)-5-hydroxy-1-(4-hydroxy-3-methoxyphenyl)decan-3-one], the “times weaker antiplatelet effect than the most promising compounds” value was “up to 22 times”.

Same assay, conditions: Platelet, 0.05 h; washed human platelets treated 3 min, then arachidonic acid (100 μM); mean ± SEM, n = 3; read-out: Antiplatelet IC50
In the case of `CCCCC[C@H](O)CC(=O)CCc1ccc(O)c(OC)c1` [Compound 1, (S)-5-hydroxy-1-(4-hydroxy-3-methoxyphenyl)decan-3-one], the IC50 is reported as 45.9 ± 5.1 µM. With `CCCCC/C=C/C(=O)CCc1ccc(O)c(OC)c1` [Compound 2, 6-shogaol] the IC50 was 2.8 ± 0.5 µM. For `CCCCC[C@H](O)C[C@H](O)CCc1ccc(O)c(OC)c1` [Compound 5, (3R,5S)-1-(4-hydroxy-3-methoxyphenyl)decane-3,5-diol], the IC50 was 51.7 ± 2.7 µM. In the case of `CCCCCc1cc(/C=C/c2ccc(O)c(OC)c2)on1` [Compound 17, (E)-2-methoxy-4-(2-(3-pentylisoxazol-5-yl)vinyl)phenol], the IC50 is reported as 3.1 ± 0.9 µM. `CCCCCc1cc(/C=C/c2ccc(O)cc2)on1` [Compound 18, (E)-4-(2-(3-pentylisoxazol-5-yl)vinyl)phenol] gave an IC50 of 32 ± 10.1 µM. In the case of `CCCCCc1cc(/C=C/c2ccc(O)cc2)[nH]n1` [Compound 16, (E)-4-(2-(3-pentyl-1H-pyrazol-5-yl)vinyl)phenol], the IC50 is reported as 3.5 ± 0.9 µM. In the case of `CCCCCCCC(=O)CCc1ccc(O)c(OC)c1` [Compound 3, 4,5-dihydro-6-shogaol], the IC50 is reported as 2.1 ± 1 µM. In the case of `CCCCCc1cc(CCc2ccc(O)cc2)[nH]n1` [Compound 15, 4-(2-(3-pentyl-1H-pyrazol-5-yl)ethyl)phenol], the IC50 is reported as over 100 µM. With `CCCCCCCNC(=O)CCc1ccc(O)c(OC)c1` [Compound 22] the IC50 was 35.9 ± 23.7 µM. `CCCCC[C@H](O)C[C@@H](O)CCc1ccc(O)c(OC)c1` [Compound 6, (3S,5S)-1-(4-hydroxy-3-methoxyphenyl)decane-3,5-diol] gave an IC50 of 45.1 ± 6 µM. For `CCCCCc1cc(CCc2ccc(O)c(OC)c2)[nH]n1` [Compound 14, 2-methoxy-4-(2-(3-pentyl-1H-pyrazol-5-yl)ethyl)phenol], the IC50 was 4.1 ± 1.2 µM. Work on `CCCCCCCC(CCc1ccc(O)c(OC)c1)=NO` [Compound 4, 1-(4-hydroxy-3-methoxyphenyl)decan-3-one oxime] yielded an IC50 of 5.2 ± 0.4 µM.

System: not listed separately
Test: Oxygen radical absorbance capacity (ORAC)
Settings: 1 µM sample; mean ± SEM, n = 3
Method: AAPH ((2,20-Azobis(2-methyl-propionamidine) dihydrochloride) free radical and Trolox standard were purchased from Sigma-Aldrich Hungary. Fluorescein was purchased from Fluka Analytical, Tokyo, Japan. ORAC assay was carried out In a 96-well microplate based on the method from previous study. Briefly, 20 µL of the samples (1 µM final concentration, dissolved in phosphate buffer, pH = 7.4, containing 1% MeOH) were mixed with 60 µL of AAPH (12 mM final concentration, dissolved in phosphate buffer, pH = 7.4) and 120 µL of fluorescein solution (70 nM final concentration, dissolved in phosphate buffer), then the fluorescence was measured (excitation at λ = 485 nm, and emission at λ = 520 nm) through 3 h with 1.5-min cycle intervals with a BMG Labtech FluoStar Optima plate-reader. All experiments were carried out in triplicate, and Trolox was used as standard. The antioxidant capacity is expressed as Trolox Equivalent (TE), as calculated using GraphPad Prism 8.0 (La Jolla, CA, USA).
For `CCCCC[C@H](O)CC(=O)CCc1ccc(O)c(OC)c1` [Compound 1, (S)-5-hydroxy-1-(4-hydroxy-3-methoxyphenyl)decan-3-one], the “ORAC TE” value was 1.30 ± 0.04 Trolox equivalents (TE). With `CCCCC/C=C/C(=O)CCc1ccc(O)c(OC)c1` [Compound 2, 6-shogaol] the “ORAC TE” value was 1.10 ± 0.03 Trolox equivalents (TE). With `CCCCC[C@H](O)C[C@H](O)CCc1ccc(O)c(OC)c1` [Compound 5, (3R,5S)-1-(4-hydroxy-3-methoxyphenyl)decane-3,5-diol] the “ORAC TE” value was 2.30 ± 0.05 Trolox equivalents (TE). With `CCCCCc1cc(/C=C/c2ccc(O)c(OC)c2)on1` [Compound 17, (E)-2-methoxy-4-(2-(3-pentylisoxazol-5-yl)vinyl)phenol] the “ORAC TE” value was 0.77 ± 0.20 Trolox equivalents (TE). In the case of `CCCCCc1cc(/C=C/c2ccc(O)cc2)on1` [Compound 18, (E)-4-(2-(3-pentylisoxazol-5-yl)vinyl)phenol], the “ORAC TE” value is reported as 1.76 ± 0.06 Trolox equivalents (TE). In the case of `CCCCCc1cc(/C=C/c2ccc(O)cc2)[nH]n1` [Compound 16, (E)-4-(2-(3-pentyl-1H-pyrazol-5-yl)vinyl)phenol], the “ORAC TE” value is reported as 2.88 ± 0.16 Trolox equivalents (TE). For `CCCCCCCC(=O)CCc1ccc(O)c(OC)c1` [Compound 3, 4,5-dihydro-6-shogaol], the “ORAC TE” value was 1.36 ± 0.02 Trolox equivalents (TE). With `CCCCCc1cc(CCc2ccc(O)cc2)[nH]n1` [Compound 15, 4-(2-(3-pentyl-1H-pyrazol-5-yl)ethyl)phenol] the “ORAC TE” value was 1.00 ± 0.02 Trolox equivalents (TE). With `CCCCCCCNC(=O)CCc1ccc(O)c(OC)c1` [Compound 22] the “ORAC TE” value was 1.62 ± 0.004 Trolox equivalents (TE). With `CCCCC[C@H](O)C[C@@H](O)CCc1ccc(O)c(OC)c1` [Compound 6, (3S,5S)-1-(4-hydroxy-3-methoxyphenyl)decane-3,5-diol] the “ORAC TE” value was 1.12 ± 0.03 Trolox equivalents (TE). For `CCCCCc1cc(CCc2ccc(O)c(OC)c2)[nH]n1` [Compound 14, 2-methoxy-4-(2-(3-pentyl-1H-pyrazol-5-yl)ethyl)phenol], the “ORAC TE” value was 0.44 ± 0.07 Trolox equivalents (TE). For `CCCCCCCC(CCc1ccc(O)c(OC)c1)=NO` [Compound 4, 1-(4-hydroxy-3-methoxyphenyl)decan-3-one oxime], the “ORAC TE” value was 0.47 ± 0.09 Trolox equivalents (TE).

Molecular target: T1, xanthine oxidase (XO) (Bos taurus, UniProt P80457)
T1 construct: purchased Sigma (Merck KGaA)
T1 sequence (P80457 2-1332 limits assumed): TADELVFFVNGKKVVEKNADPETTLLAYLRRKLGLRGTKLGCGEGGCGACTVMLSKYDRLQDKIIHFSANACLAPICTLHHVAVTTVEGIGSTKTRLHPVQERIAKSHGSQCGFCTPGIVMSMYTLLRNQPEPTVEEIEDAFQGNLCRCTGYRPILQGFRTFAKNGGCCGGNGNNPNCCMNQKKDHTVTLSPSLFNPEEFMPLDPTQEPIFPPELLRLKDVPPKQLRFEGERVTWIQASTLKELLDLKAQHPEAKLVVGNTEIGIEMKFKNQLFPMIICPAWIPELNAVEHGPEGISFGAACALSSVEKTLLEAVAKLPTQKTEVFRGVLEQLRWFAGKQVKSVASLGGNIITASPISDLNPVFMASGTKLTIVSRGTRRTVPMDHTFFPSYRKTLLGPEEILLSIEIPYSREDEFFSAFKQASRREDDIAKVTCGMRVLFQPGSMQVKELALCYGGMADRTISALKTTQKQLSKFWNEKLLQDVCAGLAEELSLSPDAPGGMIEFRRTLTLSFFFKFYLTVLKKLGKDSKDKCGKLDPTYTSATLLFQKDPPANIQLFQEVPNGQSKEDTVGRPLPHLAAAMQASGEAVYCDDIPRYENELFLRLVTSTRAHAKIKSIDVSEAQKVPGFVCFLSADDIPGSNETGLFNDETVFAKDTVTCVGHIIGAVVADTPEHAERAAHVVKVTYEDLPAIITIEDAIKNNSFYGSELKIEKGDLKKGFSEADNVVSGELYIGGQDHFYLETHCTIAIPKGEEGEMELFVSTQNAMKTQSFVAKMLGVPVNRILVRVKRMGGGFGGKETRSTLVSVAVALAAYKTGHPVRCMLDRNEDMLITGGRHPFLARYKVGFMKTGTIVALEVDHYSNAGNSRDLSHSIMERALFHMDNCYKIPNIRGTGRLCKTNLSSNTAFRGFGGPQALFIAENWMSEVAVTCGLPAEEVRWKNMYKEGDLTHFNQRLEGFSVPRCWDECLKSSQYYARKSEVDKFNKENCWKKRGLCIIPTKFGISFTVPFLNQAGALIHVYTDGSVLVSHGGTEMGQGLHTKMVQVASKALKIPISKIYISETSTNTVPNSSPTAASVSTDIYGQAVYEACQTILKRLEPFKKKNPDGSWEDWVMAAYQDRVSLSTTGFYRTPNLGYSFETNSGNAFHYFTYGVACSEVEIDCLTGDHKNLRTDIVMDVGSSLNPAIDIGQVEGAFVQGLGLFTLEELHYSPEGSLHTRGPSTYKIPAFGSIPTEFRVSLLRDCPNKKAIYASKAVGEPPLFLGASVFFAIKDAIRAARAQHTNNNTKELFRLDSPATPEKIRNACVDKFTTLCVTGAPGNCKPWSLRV
Test: Xanthine oxidase inhibition, spectrophotometric
Format: biochemical
Settings: read-out: XO Inhibition (%)
Method: The xanthine oxidase (XO) inhibitory activity of the compounds was determined using continuous spectrophotometric rate based on a modified protocol of Sigma. […]. In a 96-well plate, the final reaction mixture consisted of 10 µL of sample (dissolved in DMSO, […] stock solution, 100 µM final), 100 µL of xanthine solution (0.15 mM, pH = 7.4), 140 µL of buffer (potassium phosphate, pH = 7.5) and 50 µL of XO (0.2 units/mL). When measuring the enzyme activity, control buffer was used in place of the sample. Allopurinol was applied as a control. The reaction was initiated by the automatic addition of 50 µL of XO solution. The absorbance of XO-induced uric acid production from xanthine was measured at 290 nm for 3 min in a 96-well plate on a BMG Labtech FluoStar Optima plate reader. The inhibitory percentage values were calculated by using Graph Pad Prism 8.0 (La Jolla, CA, USA).
With `CCCCC[C@H](O)CC(=O)CCc1ccc(O)c(OC)c1` [Compound 1, (S)-5-hydroxy-1-(4-hydroxy-3-methoxyphenyl)decan-3-one] the inhibition at 100 µM was under 5%. `CCCCC/C=C/C(=O)CCc1ccc(O)c(OC)c1` [Compound 2, 6-shogaol] gave an inhibition at 100 µM of under 5%. With `CCCCC[C@H](O)C[C@H](O)CCc1ccc(O)c(OC)c1` [Compound 5, (3R,5S)-1-(4-hydroxy-3-methoxyphenyl)decane-3,5-diol] the inhibition at 100 µM was under 5%. Work on `CCCCCc1cc(/C=C/c2ccc(O)c(OC)c2)on1` [Compound 17, (E)-2-methoxy-4-(2-(3-pentylisoxazol-5-yl)vinyl)phenol] yielded an inhibition at 100 µM of under 5%. Molecule `CCCCCc1cc(/C=C/c2ccc(O)cc2)on1` [Compound 18, (E)-4-(2-(3-pentylisoxazol-5-yl)vinyl)phenol] has an inhibition at 100 µM of under 5%. For `CCCCCc1cc(/C=C/c2ccc(O)cc2)[nH]n1` [Compound 16, (E)-4-(2-(3-pentyl-1H-pyrazol-5-yl)vinyl)phenol], the inhibition at 100 µM was 16 ± 4.05%. In the case of `CCCCCCCC(=O)CCc1ccc(O)c(OC)c1` [Compound 3, 4,5-dihydro-6-shogaol], the inhibition at 100 µM is reported as under 5%. Molecule `CCCCCc1cc(CCc2ccc(O)cc2)[nH]n1` [Compound 15, 4-(2-(3-pentyl-1H-pyrazol-5-yl)ethyl)phenol] has an inhibition at 100 µM of 12.3 ± 0.9%. `CCCCCCCNC(=O)CCc1ccc(O)c(OC)c1` [Compound 22] showed an inhibition at 100 µM of under 5%. `CCCCC[C@H](O)C[C@@H](O)CCc1ccc(O)c(OC)c1` [Compound 6, (3S,5S)-1-(4-hydroxy-3-methoxyphenyl)decane-3,5-diol] showed an inhibition at 100 µM of under 5%. For `CCCCCc1cc(CCc2ccc(O)c(OC)c2)[nH]n1` [Compound 14, 2-methoxy-4-(2-(3-pentyl-1H-pyrazol-5-yl)ethyl)phenol], the inhibition at 100 µM was 10.1 ± 1.65%. With `CCCCCCCC(CCc1ccc(O)c(OC)c1)=NO` [Compound 4, 1-(4-hydroxy-3-methoxyphenyl)decan-3-one oxime] the inhibition at 100 µM was 10.6 ± 2.3%.

System: not listed separately
Test: DPPH free radical scavenging assay
Settings: not given
Method: as §1
DPPH (1,10-diphenyl-2-picrylhydrazyl) was purchased from Thermo Fisher Scientific. DPPH free radical scavenging assay was performed with some modifications based on the method by previous study. Briefly, in a 96-well microplate, microdilutions of samples (100 µL, starting from 200 µM in HPLC grade MeOH) were made and 100 µL of DPPH reagent (100 µM in MeOH) was added. After 30 min at room temperature in the dark, the absorbance was measured at 550 nm using a FluoStar Optima plate reader (software version 2.20R2, BMG Labtech Ortenberg, Germany). For the blank control, MeOH was used. The scavenging activity was calculated as Inhibition (%) = (A0 − As)/A0 × 100, and IC50 values were calculated by GraphPad Prism 8.0 (La Jolla, CA, USA).
For `CCCCCc1cc(/C=C/c2ccc(O)cc2)on1` [Compound 18, (E)-4-(2-(3-pentylisoxazol-5-yl)vinyl)phenol], the “DPPH scavenging activity (in words)” value was “inactive”. In the case of `CCCCCc1cc(CCc2ccc(O)cc2)[nH]n1` [Compound 15, 4-(2-(3-pentyl-1H-pyrazol-5-yl)ethyl)phenol], the “DPPH scavenging activity (in words)” value is reported as “inactive”.

Same assay, conditions: 30 min, room temperature, MeOH; mean ± SEM, n = 2; read-out: DDPH IC50
Molecule `CCCCC[C@H](O)CC(=O)CCc1ccc(O)c(OC)c1` [Compound 1, (S)-5-hydroxy-1-(4-hydroxy-3-methoxyphenyl)decan-3-one] has an IC50 of 8.92 ± 0.46 µM. In the case of `CCCCC/C=C/C(=O)CCc1ccc(O)c(OC)c1` [Compound 2, 6-shogaol], the IC50 is reported as 11.4 ± 0.49 µM. In the case of `CCCCC[C@H](O)C[C@H](O)CCc1ccc(O)c(OC)c1` [Compound 5, (3R,5S)-1-(4-hydroxy-3-methoxyphenyl)decane-3,5-diol], the IC50 is reported as 6.51 ± 0.28 µM. Molecule `CCCCCc1cc(/C=C/c2ccc(O)c(OC)c2)on1` [Compound 17, (E)-2-methoxy-4-(2-(3-pentylisoxazol-5-yl)vinyl)phenol] has an IC50 of 8.13 ± 0.21 µM. For `CCCCCc1cc(/C=C/c2ccc(O)cc2)on1` [Compound 18, (E)-4-(2-(3-pentylisoxazol-5-yl)vinyl)phenol], the IC50 was over 100 µM. `CCCCCc1cc(/C=C/c2ccc(O)cc2)[nH]n1` [Compound 16, (E)-4-(2-(3-pentyl-1H-pyrazol-5-yl)vinyl)phenol] gave an IC50 of 19 ± 1.63 µM. For `CCCCCCCC(=O)CCc1ccc(O)c(OC)c1` [Compound 3, 4,5-dihydro-6-shogaol], the IC50 was 9.43 ± 0.16 µM. For `CCCCCc1cc(CCc2ccc(O)cc2)[nH]n1` [Compound 15, 4-(2-(3-pentyl-1H-pyrazol-5-yl)ethyl)phenol], the IC50 was over 200 µM. For `CCCCCCCNC(=O)CCc1ccc(O)c(OC)c1` [Compound 22], the IC50 was 14.1 ± 0.21 µM. For `CCCCC[C@H](O)C[C@@H](O)CCc1ccc(O)c(OC)c1` [Compound 6, (3S,5S)-1-(4-hydroxy-3-methoxyphenyl)decane-3,5-diol], the IC50 was 13.82 ± 0.03 µM. For `CCCCCc1cc(CCc2ccc(O)c(OC)c2)[nH]n1` [Compound 14, 2-methoxy-4-(2-(3-pentyl-1H-pyrazol-5-yl)ethyl)phenol], the IC50 was 16.2 ± 0.46 µM. `CCCCCCCC(CCc1ccc(O)c(OC)c1)=NO` [Compound 4, 1-(4-hydroxy-3-methoxyphenyl)decan-3-one oxime] showed an IC50 of 8.56 ± 0.07 µM.
